The target of assay [1] is T1, rat CB2 (Rattus norvegicus, UniProt Q9QZN9).
T1 sequence (Q9QZN9 1-360): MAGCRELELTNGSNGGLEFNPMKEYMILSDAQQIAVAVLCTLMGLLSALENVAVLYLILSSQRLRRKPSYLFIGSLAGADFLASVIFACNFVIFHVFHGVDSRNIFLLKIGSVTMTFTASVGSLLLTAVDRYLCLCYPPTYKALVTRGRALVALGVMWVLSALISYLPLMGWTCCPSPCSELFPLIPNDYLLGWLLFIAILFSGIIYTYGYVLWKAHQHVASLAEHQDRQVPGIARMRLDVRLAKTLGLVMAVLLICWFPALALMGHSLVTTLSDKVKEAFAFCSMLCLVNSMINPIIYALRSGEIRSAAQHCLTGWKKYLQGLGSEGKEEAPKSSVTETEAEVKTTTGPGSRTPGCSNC
In words: rat CB2 cyclase functional assay (HitHunter cAMP). The assay is classed as cell-based. Also noted: expressed in transfected cells; host or cells: HEK. The following applies: rat CB2 cyclase (EC50, nM), HEK cells, forskolin 18 μM. On the procedure:
(§1) The cyclase functional assays were performed using the HitHunter™ cAMP assay kit from DiscoveRx (Fremont, Calif.) according to vendor's protocol. Briefly, HEK cells expressing CB2 or CB1 receptors (rat or human) were detached using cell dissociation buffer (Invitrogen, Carlsbad, Calif.), dispersed and placed in suspension at 10,000 cells per well in 96 well plates prior to the assay. Cell suspensions were incubated at 37° C. for 20 min with variable concentrations of test ligands and or 10 μM CP 55,940-positive control in the presence of a fixed concentration of forskolin (18 μM for rat CB2 and 37 μM for rat CB1) in Dulbescco's phosphate-buffered saline (Invitrogen, Carlsbad, Calif.) supplemented with bovine serum albumin (0.01% final concentration). The reactions were terminated by the addition of lysis buffer and the luminescence was detected following the procedure according to the manufacturer's instructions. EC50 values were calculated using sigmoidal dose-response curve fitting from Prism (GraphPad).

In assay [2] the target is T1, rat CB2. Nature of the assay: rat CB2 radioligand binding assay ([3H]CP 55,940 competition). The following applies: rat CB2 (Ki, nM), HEK293 membranes, 0.5 nM [3H]CP 55,940. Also noted: expressed in transfected cells; host or cells: HEK293. The gist of the method: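 Competition binding against 0.5 nM [3H]CP 55,940 (pH 7.4 buffer with 0.5 mg/mL BSA, 30 °C, 45 min), with displacers spanning 0.01 nM–10 μM at five concentrations. Receptor source: stably transfected HEK293 membranes, 20 μg/well. Nonspecific binding defined by 10 μM unlabeled CP 55,940; readout by filtration and counting.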

The target of another assay is T2, Rat CB1 (Rattus norvegicus, UniProt P20272).
T2 construct: expressed in transfected cells; host or cells: HEK
T2 sequence (P20272 whole entry): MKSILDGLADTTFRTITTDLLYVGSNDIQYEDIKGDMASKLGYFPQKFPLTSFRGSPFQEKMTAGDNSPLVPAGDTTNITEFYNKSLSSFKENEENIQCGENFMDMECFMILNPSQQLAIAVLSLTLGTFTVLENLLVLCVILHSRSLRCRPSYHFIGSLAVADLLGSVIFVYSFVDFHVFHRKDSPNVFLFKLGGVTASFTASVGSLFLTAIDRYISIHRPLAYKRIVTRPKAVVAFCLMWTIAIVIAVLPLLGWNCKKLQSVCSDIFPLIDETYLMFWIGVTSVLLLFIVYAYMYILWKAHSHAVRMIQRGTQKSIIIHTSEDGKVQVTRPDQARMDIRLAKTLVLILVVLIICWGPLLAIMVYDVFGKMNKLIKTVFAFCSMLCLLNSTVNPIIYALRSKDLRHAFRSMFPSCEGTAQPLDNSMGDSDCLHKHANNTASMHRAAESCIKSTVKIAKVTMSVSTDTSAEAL
In words: rat CB1 cyclase functional assay (HitHunter cAMP). The following applies: Rat CB1 cyclase (EC50, nM), HEK cells, forskolin 37 μM. It counts as cell-based. On the procedure: as §1

Another assay deals with T3, human CB2 receptors (Homo sapiens, UniProt P34972).
T3 construct: expressed in transfected cells; host or cells: HEK293
T3 sequence (P34972 whole entry): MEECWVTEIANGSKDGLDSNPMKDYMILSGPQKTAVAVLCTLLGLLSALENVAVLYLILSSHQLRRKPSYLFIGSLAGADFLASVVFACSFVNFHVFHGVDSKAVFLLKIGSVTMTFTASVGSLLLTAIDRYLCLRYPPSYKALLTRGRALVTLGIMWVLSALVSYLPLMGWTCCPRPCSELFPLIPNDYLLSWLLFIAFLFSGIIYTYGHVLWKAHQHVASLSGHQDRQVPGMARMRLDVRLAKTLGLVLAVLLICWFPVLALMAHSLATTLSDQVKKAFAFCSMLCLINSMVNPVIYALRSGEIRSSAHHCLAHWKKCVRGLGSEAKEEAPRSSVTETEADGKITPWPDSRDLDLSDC
Nature of the assay: human CB2 radioligand binding assay ([3H]CP 55,940 competition). The following applies: human CB2 (Ki, nM), HEK293 membranes, 0.5 nM [3H]CP 55,940. The gist of the method:
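Displacement of 0.5 nM [3H]CP 55,940 over 0.01 nM-10 μM test compound, measured on human CB2 membranes from stably transfected HEK293 cells. Incubation 90 min at 30 °C in Tris/EDTA/MgCl2/BSA, pH 7.4, then filter-bound radioactivity counted; 10 μM unlabeled CP 55,940 defined nonspecific binding.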

Usually EC50 stands for the concentration at which the effect is half-maximal. In general, Ki refers to a dissociation constant, usually derived from enzyme kinetics or from competition with a known ligand. Lower therefore signals a stronger hold on the target.

Regarding `Cn1c(C(C)(C)C)c/c(=N\C(=O)c2cc(C(F)(F)F)ccc2OCCNS(=O)(=O)C2CC2)n1C[C@H]1CCCO1` [Example 49, N-{(3E)-5-tert-butyl-1-methyl-2-[(2R)-tetrahydrofuran-2-ylmethyl]-1,2-dihydro-3H-pyrazol-3-ylidene}-2-{2-[(cyclopropylsulfonyl)amino]ethoxy}-5-(trifluoromethyl)benzamide], the EC50 at rat CB2 [1] worked out at 0.12 nM; at Rat CB1, 4190 nM. Also, the Ki amounted to 2.7 nM at rat CB2 [2] and 13 nM on human CB2 receptors.
The like results for `Cn1c(C(C)(C)C)c/c(=N\C(=O)c2cc(C(F)(F)F)ccc2OC[C@@H]2CCCO2)n1Cc1ccc(F)cc1` [Example 30, N-[(3E)-5-tert-butyl-2-(4-fluorobenzyl)-1-methyl-1,2-dihydro-3H-pyrazol-3-ylidene]-2-[(2S)-tetrahydrofuran-2-ylmethoxy]-5-(trifluoromethyl)benzamide] were, in that order, 2.5 nM, > 27000 nM, 23 nM and 28 nM.
The like results for `CC(C)(C)c1cn(C[C@H]2CCCO2)/c(=N/C(=O)c2cc(C(F)(F)F)ccc2OCCN2CCCC2)o1` [Example 77, N-[(2Z)-5-tert-butyl-3-[(2R)-tetrahydrofuran-2-ylmethyl]-1,3-oxazol-2(3 H)-ylidene]-2-(2-pyrrolidin-1-ylethoxy)-5-(trifluoromethyl)benzamide] were, in that order, 0.1 nM, 2560 nM, 73 nM and 96 nM.
For `Cn1c(C(C)(C)C)c/c(=N\C(=O)c2cc(C(F)(F)F)ccc2OC[C@H]2COC(C)(C)O2)n1C[C@H]1CCCO1` [Example 18, N-{(3E)-5-tert-butyl-1-methyl-2-[(2R)-tetrahydrofuran-2-ylmethyl]-1,2-dihydro-3H-pyrazol-3-ylidene}-2-{[(4S)-2,2-dimethyl-1,3-dioxolan-4-yl]methoxy}-5-(trifluoromethyl)benzamide], in that order: 1.8 nM, > 27000 nM, 22 nM and 37 nM.
`CC(=O)NCCOc1ccc(C(F)(F)F)cc1C(=O)/N=c1\cc(C(C)(C)C)n(C)n1C[C@H]1CCCO1` [Example 78, 2-[2-(acetylamino)ethoxy]-N-{(3E)-5-tert-butyl-1-methyl-2-[(2R)-tetrahydrofuran-2-ylmethyl]-1,2-dihydro-3H-pyrazol-3-ylidene}-5-(trifluoromethyl)benzamide]: the EC50 stood at 1.9 nM on rat CB2 [1] and 8880 nM on Rat CB1. Moreover, the Ki worked out at 18 nM at rat CB2 [2] and 15 nM at human CB2 receptors.
The like results for `Cn1c(C(C)(C)C)c/c(=N\C(=O)c2cc(C(F)(F)F)ccc2OC[C@@H]2CCC(=O)N2)n1C[C@H]1CCCO1` [Example 12, N-{(3E)-5-tert-butyl-1-methyl-2-[(2R)-tetrahydrofuran-2-ylmethyl]-1,2-dihydro-3H-pyrazol-3-ylidene}-2-{[(2S)-5-oxopyrrolidin-2-yl]methoxy}-5-(trifluoromethyl)benzamide] were, in that order, 0.79 nM, > 27000 nM, 46 nM and 99 nM.
For `CSCCCOc1ccc(C(F)(F)F)cc1C(=O)/N=c1\cc(C(C)(C)C)n(C)n1C[C@H]1CCCO1` [Example 58], in that order: 0.7 nM, > 27000 nM, 5.1 nM and 3.9 nM.
For `CN1CCC[C@H]1COc1ccc(C(F)(F)F)cc1C(=O)/N=c1\oc(C(C)(C)C)cn1CC1CCC1` [Example 75], in that order: 0.19 nM, 1360 nM, 44 nM and 42 nM.
In the case of `Cn1c(C(C)(C)C)c/c(=N\C(=O)c2cc(C(F)(F)F)ccc2OCC(O)CO)n1C[C@H]1CCCO1` (stereo partly drawn) [Example 42], the figures for the EC50 on rat CB2 [1] and on Rat CB1 were 0.34 nM and 6100 nM, respectively. Moreover, the Ki on rat CB2 [2] came to 11 nM; at human CB2 receptors it was 20 nM.

Source of the values: US8188135B2, “Compounds as cannabinoid receptor ligands” (priority 2008, dated 2012).
